Source: US12071453B2, “Neuroactive steroids, compositions, and uses thereof” (Sage Therapeutics, Inc., priority 2013, dated 2024)
pIC50: −log10 of the molar value.

Tests used:
[1] = target: T1, recombinant α4β3δ GABAA receptors (Homo sapiens, UniProt P28472+P48169); test: Manual patch clamp electrophysiology in CHO cells transiently transfected with α4β3δ; format: cell-based; details: 10 μM compound, 2 μM GABA (EC20), read-out: GABA (α4β3δ) Manual patch in CHO, % efficacy at 10 μM
T1 construct: expressed in transfected cells; host or cells: CHO cells, transiently transfected (Lipofectamine)
T1 sequence (P48169 36-554): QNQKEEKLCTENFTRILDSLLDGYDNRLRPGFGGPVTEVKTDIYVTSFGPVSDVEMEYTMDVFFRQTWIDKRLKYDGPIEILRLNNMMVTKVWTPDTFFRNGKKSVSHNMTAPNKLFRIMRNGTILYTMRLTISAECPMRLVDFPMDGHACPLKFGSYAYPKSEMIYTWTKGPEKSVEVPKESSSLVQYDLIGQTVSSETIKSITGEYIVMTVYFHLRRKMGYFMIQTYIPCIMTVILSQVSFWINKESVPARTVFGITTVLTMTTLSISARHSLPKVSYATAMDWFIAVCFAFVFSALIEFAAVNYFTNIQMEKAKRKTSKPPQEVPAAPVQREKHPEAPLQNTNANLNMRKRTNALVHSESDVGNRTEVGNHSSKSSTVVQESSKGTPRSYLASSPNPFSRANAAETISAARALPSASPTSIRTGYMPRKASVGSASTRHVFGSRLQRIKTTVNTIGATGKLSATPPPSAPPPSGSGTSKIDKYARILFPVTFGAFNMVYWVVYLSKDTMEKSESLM
T1 sequence (P28472 26-473): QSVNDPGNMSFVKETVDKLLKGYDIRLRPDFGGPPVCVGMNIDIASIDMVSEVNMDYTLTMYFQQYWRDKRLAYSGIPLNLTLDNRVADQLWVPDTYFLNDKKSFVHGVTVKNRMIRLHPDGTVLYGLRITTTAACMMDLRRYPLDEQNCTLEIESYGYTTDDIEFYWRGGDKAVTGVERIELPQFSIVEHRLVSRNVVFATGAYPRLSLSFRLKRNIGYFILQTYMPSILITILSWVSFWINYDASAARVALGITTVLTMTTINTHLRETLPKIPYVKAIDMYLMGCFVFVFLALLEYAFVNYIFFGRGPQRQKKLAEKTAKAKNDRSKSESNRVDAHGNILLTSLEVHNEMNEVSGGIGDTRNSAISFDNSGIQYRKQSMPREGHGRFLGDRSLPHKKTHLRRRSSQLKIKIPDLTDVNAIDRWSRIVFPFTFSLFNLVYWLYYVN
T1 sequence (O14764 25-452 partner): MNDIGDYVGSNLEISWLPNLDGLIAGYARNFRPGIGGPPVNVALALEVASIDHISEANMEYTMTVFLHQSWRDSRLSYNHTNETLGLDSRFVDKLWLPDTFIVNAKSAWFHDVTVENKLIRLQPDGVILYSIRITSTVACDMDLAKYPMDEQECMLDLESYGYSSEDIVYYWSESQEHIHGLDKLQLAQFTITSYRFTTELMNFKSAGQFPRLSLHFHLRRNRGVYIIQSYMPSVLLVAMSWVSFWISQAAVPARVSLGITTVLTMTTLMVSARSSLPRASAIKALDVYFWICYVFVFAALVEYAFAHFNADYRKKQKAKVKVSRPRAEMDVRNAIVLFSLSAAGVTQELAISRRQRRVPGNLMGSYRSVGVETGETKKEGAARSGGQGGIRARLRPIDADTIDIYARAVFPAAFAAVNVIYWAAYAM

[2] = target: T2, recombinant α1β2γ2 GABAA receptors (Homo sapiens, UniProt P14867+P47870); test: Patch clamp electrophysiology (QPatch) in LTK cells stably transfected with α1β2γ2; format: cell-based; details: 10 μM compound, 2 μM GABA (EC20), read-out: GABA (α1β2γ2) Qpatch in Ltk, % efficacy at 10 μM
T2 construct: expressed in transfected cells; host or cells: LTK cells, stably transfected
T2 sequence (P14867 28-456): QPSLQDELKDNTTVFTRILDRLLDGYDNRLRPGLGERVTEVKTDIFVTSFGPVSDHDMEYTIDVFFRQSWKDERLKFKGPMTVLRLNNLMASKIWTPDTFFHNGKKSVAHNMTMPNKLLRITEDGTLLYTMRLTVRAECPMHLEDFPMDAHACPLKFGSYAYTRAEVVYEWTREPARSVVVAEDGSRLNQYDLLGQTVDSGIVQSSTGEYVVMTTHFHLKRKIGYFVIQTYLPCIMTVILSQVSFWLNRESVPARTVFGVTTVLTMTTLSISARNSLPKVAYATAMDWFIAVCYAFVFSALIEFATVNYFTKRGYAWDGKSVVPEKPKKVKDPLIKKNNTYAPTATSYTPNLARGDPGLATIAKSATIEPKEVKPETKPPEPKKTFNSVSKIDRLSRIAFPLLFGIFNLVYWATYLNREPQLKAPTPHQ
T2 sequence (P47870 26-512): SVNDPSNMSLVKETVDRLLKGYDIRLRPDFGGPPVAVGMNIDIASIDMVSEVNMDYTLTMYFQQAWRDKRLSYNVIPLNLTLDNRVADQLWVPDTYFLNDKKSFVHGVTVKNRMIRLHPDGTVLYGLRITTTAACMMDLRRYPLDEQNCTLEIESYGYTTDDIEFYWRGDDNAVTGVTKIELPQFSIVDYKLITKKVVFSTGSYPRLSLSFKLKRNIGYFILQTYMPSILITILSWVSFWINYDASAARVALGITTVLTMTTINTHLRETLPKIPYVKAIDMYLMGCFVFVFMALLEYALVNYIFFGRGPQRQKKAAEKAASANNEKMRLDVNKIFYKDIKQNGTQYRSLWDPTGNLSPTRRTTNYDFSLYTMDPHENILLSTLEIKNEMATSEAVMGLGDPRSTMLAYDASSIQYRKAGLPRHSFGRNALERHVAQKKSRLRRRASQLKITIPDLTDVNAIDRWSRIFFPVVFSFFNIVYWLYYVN
T2 sequence (P18507 40-475 partner): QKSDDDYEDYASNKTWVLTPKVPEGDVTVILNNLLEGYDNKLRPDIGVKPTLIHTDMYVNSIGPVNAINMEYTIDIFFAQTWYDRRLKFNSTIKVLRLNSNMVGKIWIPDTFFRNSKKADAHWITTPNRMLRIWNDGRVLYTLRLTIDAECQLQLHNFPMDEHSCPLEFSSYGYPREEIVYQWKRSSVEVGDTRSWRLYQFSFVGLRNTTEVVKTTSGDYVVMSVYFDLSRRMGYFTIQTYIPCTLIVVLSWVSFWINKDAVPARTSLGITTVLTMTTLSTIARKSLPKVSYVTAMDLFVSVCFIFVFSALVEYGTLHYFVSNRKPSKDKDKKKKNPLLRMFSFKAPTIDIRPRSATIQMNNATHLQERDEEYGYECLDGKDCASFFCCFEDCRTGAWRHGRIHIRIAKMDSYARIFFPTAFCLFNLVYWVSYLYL

[3] = target: [35S]-TBPS binding in rat brain cortical membranes; test: Steroid inhibition of [35S]-TBPS binding, rat brain cortical membranes; details: 3 nM [35S]-TBPS, in the presence of 5 μM GABA, read-out: 35S-TBPS Radioligand Displacement (IC50)
Summary of the method: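 Washed P2 cortical membranes from Sprague-Dawley rats were incubated 90 min at room temperature with 3 nM [35S]-TBPS, 5 μM GABA and test steroid (0.5% DMSO) in 200 mM NaCl/50 mM Na–K phosphate, pH 7.4. Nonspecific binding was defined with 2 μM unlabeled TBPS, and samples were filtered and counted. IC50 and Imax came from non-linear fits, reported as mean ± SEM.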

[4] = target: T3, GABAA receptors composed of the α1β2γ2 subunits (GABRA1/GABRB2/GABRG2) (Homo sapiens, UniProt P14867+P47870); test: Two Electrode Voltage Clamp (TEVC), GABA receptor potentiation in Xenopus laevis oocytes, α1β2γ2; format: cell-based; details: 10 μM compound, 10 μM GABA, read-out: GABA (α1β2γ2) % efficacy at 10 μM
T3 construct: expressed in transfected cells; host or cells: Xenopus laevis oocytes, injected (ratio 1:1:1)
T3 sequence (P14867 28-456): as the sequence (P14867 28-456) above
T3 sequence (P47870 26-512): as the sequence (P47870 26-512) above
T3 sequence (P18507 40-475 partner): as the sequence (P18507 40-475 partner) above

[5] = target: T4, GABAA receptors composed of the α4β3δ subunits (GABRA4/GABRB3/GABRD) (Homo sapiens, UniProt P28472+P48169); test: Two Electrode Voltage Clamp (TEVC), GABA receptor potentiation in Xenopus laevis oocytes, α4β3δ; format: cell-based; details: 10 μM compound, 3 μM GABA, read-out: GABA (α4β3δ) % efficacy at 10 μM
T4 construct: expressed in transfected cells; host or cells: Xenopus laevis oocytes, injected (ratio 5:1:5)
T4 sequence (P48169 36-554): as the sequence (P48169 36-554) above
T4 sequence (P28472 26-473): as the sequence (P28472 26-473) above
T4 sequence (O14764 25-452 partner): as the sequence (O14764 25-452 partner) above
Description: The Two Electrode Voltage Clamp (TEVC) technique was used to investigate the effects of compounds at a concentration of 10 μM on GABAA receptors composed of the α1β2γ2 or α4β3δ subunits expressed in oocytes from the Xenopus laevis. GABA-evoked currents were recorded from oocytes that expressed the GABA receptors and the modulatory effects of the test items on these currents were investigated.
Ovaries were harvested from Xenopus laevis females that had been deeply anesthetized by cooling at 4° C. and immersion in Tricaine methanesulfonate (MS-222 at a concentration of 150 mg/L) in sodium bicarbonate (300 mg/L). Once anesthetized the animal was decapitated and pithed following the rules of animal rights from the Geneva canton. A small piece of ovary was isolated for immediate preparation while the remaining part was placed at 4° C. in a sterile Barth solution containing in mM NaCl 88, KCl 1, NaHCO3 2.4, HEPES 10, MgSO4·7H2O 0.82, Ca(NO3)2·4H2O 0.33, CaCl2·6H2O 0.41, at pH 7.4, and supplemented with 20 μg/ml of kanamycin, 100 unit/ml penicillin and 100 μg/ml streptomycin. All recordings were performed at 18° C. and cells were super-fused with medium containing in mM: NaCl 82.5, KCl 2.5, HEPES 5, CaCl2·2H2O, ·6H2O 1, pH 7.4.
Plasmids containing the RNAs of the human GABRA1/GABRB2/GABRG2 and GABRA4/GABRB3/GABRD genes were injected into oocytes using a proprietary automated injection device (Hogg el al., J. Neurosci. Methods, (2008) 169: 65-75). These genes encode for the α1β2γ2 and α4β3δ GABAA subunits respectively. Receptor expression was assessed using electrophysiology at least two days later. The ratio of RNA injection for α1β2γ2 was 1:1:1 and for α4β3δ was 5:1:5. Electrophysiological recordings were made using an automated process equipped with standard TEVC and data were captured and analyzed using a proprietary data acquisition and analysis software running under Matlab (Mathworks Inc.). The membrane potential of the oocytes was maintained at −80 mV throughout the experiments. To explore the effects of proprietary compounds, currents were evoked by applying 10 μM (α1β2γ2) or 3 μM (α4β3δ) GABA for 30 s. These concentrations approximated the EC50 concentration of GABA at each receptor subtype. Oocytes were then re-exposed to GABA again for 30 s. 15 s after beginning the GABA application, test article was co-applied at a concentration of 10 μM for 15 s. Potentiation of the peak current was assessed. Data was filtered at 10 Hz, captured at 100 Hz and analyzed using proprietary data acquisition and analysis software running under Matlab (Mathworks Inc.). For statistical analysis values were computed either with Excel (Microsoft) or Matlab (mathworks Inc.). To obtain mean measurements with standard deviations, all experiments were carried out using at least three cells.

SMILES | Emax at 10 µM [1] [%] | Emax at 10 µM [2] [%] | pIC50 [3] | melting point [°C] | Emax at 10 µM [4] [%] | Emax at 10 µM [5] [%]
COC[C@]12CC[C@@](C)(O)C[C@@H]1CC[C@H]1[C@@H]3CC[C@H](C(=O)Cn4nc5ccc(Cl)cc5n4)[C@@]3(C)CC[C@@H]12 [Compound 35] | 100 to 500 | 100 to 500 | 7.30 to 8.00 |  |  | 
COC[C@]12CC[C@@](C)(O)C[C@H]1CC[C@H]1[C@@H]3CC[C@H](C(=O)Cn4cc(Cl)cn4)[C@@]3(C)CC[C@@H]12 [Compound 34] |  |  | > 8.00 | 163 to 165 | 50 to 500 | 
COC[C@]12CC[C@@](C)(O)C[C@@H]1CC[C@H]1[C@@H]3CC[C@H](C(=O)Cn4nccn4)[C@@]3(C)CC[C@@H]12 [Compound 1] | > 500 | 100 to 500 | 7.30 to 8.00 |  |  | 
COC[C@]12CC[C@@](C)(O)C[C@@H]1CC[C@H]1[C@@H]3CC[C@H](C(=O)Cn4nc5ccc(F)c(F)c5n4)[C@@]3(C)CC[C@@H]12 [Compound 54] | > 500 | 100 to 500 | 7.30 to 8.00 |  |  | 
COC[C@]12CC[C@@](C)(O)C[C@H]1CC[C@H]1[C@@H]3CC[C@H](C(=O)Cn4nc5ccc(Cl)cc5n4)[C@@]3(C)CC[C@@H]12 [Compound 76] | > 500 | > 500 | > 8.00 |  |  | 
COC[C@]12CC[C@@](C)(O)C[C@@H]1CC[C@H]1[C@@H]3CC[C@H](C(=O)CN4CCN(C)CC4)[C@@]3(C)CC[C@@H]12 [Compound 8] |  |  | < 6.30 | 136 to 137 |  | 
COC[C@]12CC[C@@](C)(O)C[C@H]1CC[C@H]1[C@@H]3CC[C@H](C(=O)Cn4nnnc4C)[C@@]3(C)CC[C@@H]12 [Compound 30] | > 500 | 100 to 500 | > 8.00 |  |  | 
COC[C@]12CC[C@@](C)(O)C[C@@H]1CC[C@H]1[C@@H]3CC[C@H](C(=O)Cn4nc5ccc(F)cc5n4)[C@@]3(C)CC[C@@H]12 [Compound 43] | 100 to 500 | > 500 | > 8.00 |  |  | 
COC[C@]12CC[C@@](C)(O)C[C@@H]1CC[C@H]1[C@@H]3CC[C@H](C(=O)Cn4nnc5ccc(F)c(F)c54)[C@@]3(C)CC[C@@H]12 [Compound 52] | > 500 | 100 to 500 | 7.30 to 8.00 |  |  | 
COC[C@]12CC[C@@](C)(O)C[C@@H]1CC[C@H]1[C@@H]3CC[C@H](C(=O)Cn4ccc(C#N)n4)[C@@]3(C)CC[C@@H]12 [Compound 19] | 100 to 500 | 100 to 500 |  |  |  | 
COC[C@]12CC[C@@](C)(O)C[C@H]1CC[C@H]1[C@@H]3CC[C@H](C(=O)Cn4cc(C#N)cn4)[C@@]3(C)CC[C@@H]12 [Compound 27] |  |  | > 8.00 | 176 to 178 | 1000 to 1500 | 
COC[C@]12CC[C@@](C)(O)C[C@@H]1CC[C@H]1[C@@H]3CC[C@H](C(=O)Cn4ncnn4)[C@@]3(C)CC[C@@H]12 [Compound 14] | > 500 | 100 to 500 | 7.30 to 8.00 | 72 to 75 |  | 
COC[C@]12CC[C@@](C)(O)C[C@@H]1CC[C@H]1[C@@H]3CC[C@H](C(=O)Cn4ccnn4)[C@@]3(C)CC[C@@H]12 [Compound 3] |  |  | < 6.30 | 72 to 74 |  | 
COC[C@]12CC[C@@](C)(O)C[C@@H]1CC[C@H]1[C@@H]3CC[C@H](C(=O)Cn4cc(C#N)cn4)[C@@]3(C)CC[C@@H]12 [Compound 13] |  |  | 7.00 to 7.30 | 141 to 142 | 1000 to 1500 | 
COC[C@]12CC[C@@](C)(O)C[C@@H]1CC[C@H]1[C@@H]3CC[C@H](C(=O)Cn4nnc5cc(Cl)ccc54)[C@@]3(C)CC[C@@H]12 [Compound 37] | > 500 | > 500 | 7.30 to 8.00 |  |  | 
COC[C@]12CC[C@@](C)(O)C[C@@H]1CC[C@H]1[C@@H]3CC[C@H](C(=O)Cn4nnc5c(OC)cccc54)[C@@]3(C)CC[C@@H]12 [Compound 58] |  |  | > 8.00 |  | 500 to 1000 | 500 to 1000
COC[C@]12CC[C@@](C)(O)C[C@@H]1CC[C@H]1[C@@H]3CC[C@H](C(=O)Cn4nnnc4C)[C@@]3(C)CC[C@@H]12 [Compound 16] | > 500 | > 500 | 7.30 to 8.00 |  |  | 
CCOC[C@]12CC[C@@](C)(O)C[C@@H]1CC[C@H]1[C@@H]3CC[C@H](C(=O)Cn4nc5ccc(Cl)cc5n4)[C@@]3(C)CC[C@@H]12 [Compound 72] |  |  | 7.30 to 8.00 |  | 50 to 500 | 1000 to 1500
COC[C@]12CC[C@@](C)(O)C[C@@H]1CC[C@H]1[C@@H]3CC[C@H](C(=O)Cn4nnc5ccc(Cl)cc54)[C@@]3(C)CC[C@@H]12 [Compound 36] | 100 to 500 | 100 to 500 | 7.30 to 8.00 |  |  | 
COC[C@]12CC[C@@](C)(O)C[C@@H]1CC[C@H]1[C@@H]3CC[C@H](C(=O)Cn4nnc5ccc(OC)c(OC)c54)[C@@]3(C)CC[C@@H]12 [Compound 62] |  |  | 7.30 to 8.00 |  | 500 to 1000 | 1000 to 1500
COC[C@]12CC[C@@](C)(O)C[C@@H]1CC[C@H]1[C@@H]3CC[C@H](C(=O)Cn4cc5ncc(Cl)cc5n4)[C@@]3(C)CC[C@@H]12 [Compound 68] |  |  | 7.30 to 8.00 |  | 50 to 500 | 1000 to 1500
COC[C@]12CC[C@@](C)(O)C[C@@H]1CC[C@H]1[C@@H]3CC[C@H](C(=O)Cn4nnc5cc(F)c(F)cc54)[C@@]3(C)CC[C@@H]12 [Compound 98] |  |  | 7.00 to 7.30 |  | 500 to 1000 | 1000 to 1500
COC[C@]12CC[C@@](C)(O)C[C@@H]1CC[C@H]1[C@@H]3CC[C@H](C(=O)Cn4nnc5c(F)cccc54)[C@@]3(C)CC[C@@H]12 [Compound 48] |  |  | 7.30 to 8.00 |  | 500 to 1000 | 50 to 500
COC[C@]12CC[C@@](C)(O)C[C@@H]1CC[C@H]1[C@@H]3CC[C@H](C(=O)Cn4nnc5c(OC)cc(OC)cc54)[C@@]3(C)CC[C@@H]12 [Compound 66] |  |  | 7.30 to 8.00 |  | 50 to 500 | 1000 to 1500
CCOC[C@]12CC[C@@](C)(O)C[C@@H]1CC[C@H]1[C@@H]3CC[C@H](C(=O)Cn4nnc5cc(Cl)ccc54)[C@@]3(C)CC[C@@H]12 [Compound 71] |  |  | 7.30 to 8.00 |  | 50 to 500 | 1000 to 1500
COC[C@]12CC[C@@](C)(O)C[C@@H]1CC[C@H]1[C@@H]3CC[C@H](C(=O)Cn4nc5cc(F)cc(F)c5n4)[C@@]3(C)CC[C@@H]12 [Compound 55] | > 500 | > 500 | 7.00 to 7.30 |  |  | 
COC[C@]12CC[C@@](C)(O)C[C@@H]1CC[C@H]1[C@@H]3CC[C@H](C(=O)Cn4cnnn4)[C@@]3(C)CC[C@@H]12 [Compound 15] | 100 to 500 | > 500 | 6.30 to 7.00 | 88 to 91 |  | 
